The results in this text go back to patent US10442803B2, “Tricyclic heterocycles as bet protein inhibitors” (Incyte Corporation, priority 2013, dated 2019).

Where a name gives a salt, the structure may show the parent alone.

The target in one experiment is BRD4-BD2 (Homo sapiens (Human), UniProt O60885). The experiment is described as follows: BRD4 AlphaScreen assay (BRD4-BD2). The experiment is classed as binding. The conditions noted are these: H4Ac4 peptide, read-out: BRD4 BD-2 enzyme IC50. Here is the method:
(§1) BRD4-BD1 and BRD4-BD2 assays were conducted in white 384-well polystyrene plate in a final volume of 20 μL for BD1 and 40 μL for BD2. Inhibitors were first serially diluted in DMSO and added to the plate wells before the addition of other reaction components. The final concentration of DMSO in the assay was 1.25% (BD1) and 0.83% (BD2). The assays were carried out at room temperature for 75 min. in the assay buffer (50 mM HEPES, pH 7.4, 100 mM NaCl, 0.05% CHAPS, 0.01% BSA), containing 50 nM Biotin-labeled tetra-acetylated histone H4 peptide (H4Ac4), 3.8 nM (BRD4-BD1, BPS Bioscience #31040) or 20 nM (BRD4-BD2, BPS Bioscience #31041). The reaction followed by the addition of 20 μL of assay buffer supplemented with Streptavidin donor beads (PerkinElmer 6760002) and GSH Acceptor beads (PerkinElmer-AL109C) at 4 μg/mL under reduced light. After plate sealing, the plate was incubated in the dark at room temperature for 75 min. before reading on a PHERAstar FS plate reader (BMG Labtech). IC50 determination was performed by fitting the curve of percent control activity versus the log of the inhibitor concentration using the GraphPad Prism 5.0 software.

The next experiment has as its system KMS.12.BM cells. The experiment is described as follows: KMS.12.BM cell viability assay. The format is cell-based. The conditions noted are these: 72 h; KMS.12.BM human myeloma cells, 3 days, Cell Titer-GLO ATP quantitation; read-out: KMS cellular IC50. An outline of the steps: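 Human myeloma KMS.12.BM cells, 5000 per well in RPMI/10% FBS, exposed 3 days to compound concentration range. Viability from ATP-based Cell Titer-GLO luminescence; IC50 derived.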
For orientation: ATP-based viability assays read luminescence as a measure of living cells.

The target of a further experiment is BRD4-BD1 (Homo sapiens (Human), UniProt O60885). The experiment can be described thus: BRD4 AlphaScreen assay (BRD4-BD1). The format is binding. Conditions: H4Ac4 peptide, read-out: BRD4 BD-1 enzyme IC50. As for the experimental part:
as §1
Background: In Alpha technology, singlet oxygen from a donor bead excites a nearby acceptor bead.

The IC50 is the point on the concentration scale where inhibition reaches its midpoint. `Cc1cc2c(ccc3nnc(C)n32)n1[C@@H](C)c1ccccc1` (single isomer, unassigned) [Example 5, 1,7-dimethyl-6-(1-phenylethyl)-6H-pyrrolo[2,3-e][1,2,4]triazolo[4,3-a]pyridine]: the IC50 is not above 100 nM at BRD4-BD2, 1000 to 10000 nM in the experiment on KMS.12.BM cells and 100 to 1000 nM at BRD4-BD1.
Take `Cc1nnc2ccc3c(cc(-c4ccn(C5CN(S(C)(=O)=O)C5)n4)n3Cc3cccc(Cl)c3)n12` [Example 109, 6-(3-chlorobenzyl)-1-methyl-7-{1-[1-(methylsulfonyl)azetidin-3-yl]-1H-pyrazol-3-yl}-6H-pyrrolo[2,3-e][1,2,4]triazolo[4,3-a]pyridine]: the results for the IC50 at BRD4-BD2 and in the experiment on KMS.12.BM cells were not above 100 nM and not above 1000 nM, respectively.
Regarding `CCN1CC(CC#N)(n2ccc(-c3cc4c(ccc5nnc(C)n54)n3Cc3ccccc3)n2)C1` [Example 110, {3-[3-(6-benzyl-1-methyl-6H-pyrrolo[2,3-e][1,2,4]triazolo[4,3-a]pyridin-7-yl)-1H-pyrazol-1-yl]-1-ethylazetidin-3-yl}acetonitrile], the IC50 in the experiment on KMS.12.BM cells was not above 1000 nM; at BRD4-BD1, not above 100 nM.
In the same order, the values of `Cc1nnc2ccc3c(cc(-c4ccn(C5(CC#N)CN(C(C)C)C5)n4)n3Cc3ccccc3)n12` [Example 111, {3-[3-(6-benzyl-1-methyl-6H-pyrrolo[2,3-e][1,2,4]triazolo[4,3-a]pyridin-7-yl)-1H-pyrazol-1-yl]-1-isopropylazetidin-3-yl}acetonitrile] are not above 1000 nM and not above 100 nM.
As for `Cc1nnc2ccc3c(cc(-c4nnco4)n3Cc3cc(Cl)cc(CN4CC(O)C4)c3)n12` [Example 139, 1-(3-Chloro-5-{[1-methyl-7-(1,3,4-oxadiazol-2-yl)-6H-pyrrolo[2,3-e][1,2,4]triazolo[4,3-a]pyridin-6-yl]methyl}benzyl)azetidin-3-ol], the 50% inhibitory concentration (IC50) is not above 100 nM on BRD4-BD2, 1000 to 10000 nM in the experiment with KMS.12.BM cells and not above 100 nM on BRD4-BD1.
Turning to `Cc1nnc2ccc3c(cc(-c4nnco4)n3Cc3cc(Cl)cc(CN4CCC4)c3)n12` [Example 140, 6-[3-(Azetidin-1-ylmethyl)-5-chlorobenzyl]-1-methyl-7-(1,3,4-oxadiazol-2-yl)-6H-pyrrolo[2,3-e][1,2,4]triazolo[4,3-a]pyridine], the IC50 was […] on BRD4-BD2 and not above 1000 nM in the experiment with KMS.12.BM cells.
Turning to `Cc1nnc2ccc3c(cc(-c4nnco4)n3Cc3cccc(Cl)c3)n12` [Example 141, 6-(3-Chlorobenzyl)-1-methyl-7-(1,3,4-oxadiazol-2-yl)-6H-pyrrolo[2,3-e][1,2,4]triazolo[4,3-a]pyridine trifluoroacetate salt], the IC50 on BRD4-BD2 was not above 100 nM; in the experiment with KMS.12.BM cells, not above 1000 nM; at BRD4-BD1, not above 100 nM.
For the molecule `Cc1nnc2ccc3c(cc(-c4ccn(C5CNC5)n4)n3Cc3cccc(Cl)c3)n12` [Example 156, 7-(1-azetidin-3-yl-1H-pyrazol-3-yl)-6-(3-chlorobenzyl)-1-methyl-6H-pyrrolo[2,3-e][1,2,4]triazolo[4,3-a]pyridine bis(trifluoroacetate) salt], the results for the IC50 on BRD4-BD2, in the experiment on KMS.12.BM cells and at BRD4-BD1 were not above 100 nM, not above 1000 nM and not above 100 nM, respectively.
Turning to `Cc1nnc2ccc3c(cc(-c4ccn(C5(CC#N)CNC5)n4)n3Cc3cccc(Cl)c3)n12` [Example 157, (3-{3-[6-(3-Chlorobenzyl)-1-methyl-6H-pyrrolo[2,3-e][1,2,4]triazolo[4,3-a]pyridin-7-yl]-1H-pyrazol-1-yl}azetidin-3-yl)acetonitrile bis(trifluoroacetate) salt], the IC50 is not above 100 nM at BRD4-BD2, not above 1000 nM in the experiment on KMS.12.BM cells and not above 100 nM on BRD4-BD1.
Turning to `Cc1nc2c(cc(NC3CCN(C)CC3)c3nnc(C)n32)n1Cc1ccccc1` [Example 223, 3-Benzyl-2,8-dimethyl-N-(1-methylpiperidin-4-yl)-3H-imidazo[4,5-e][1,2,4]triazolo[4,3-a]pyridin-5-amine], the IC50 in the experiment on KMS.12.BM cells is not above 1000 nM; at BRD4-BD1, not above 100 nM.
